pEC50: −log10 of the molar value.
Target: human NAMPT (Homo sapiens (Human), UniProt P43490)
Assay: Human recombinant enzyme assay (NMN fluorescence biochemical assay)
Conditions: 6 nM human NAMPT, 60 min; for AC1.4 Human: concentration of compound that generates 40% higher activity over basal; for pEC50: concentration that gives half-maximal activation
Protocol: Compounds described herein were assayed for their ability to stimulate the synthesis of nicotinamide mononucleotide (NMN) by the enzyme NAMPT. The human recombinant enzyme assay measures the activation of the enzyme activity by compounds using recombinant enzyme and substrates in a buffered cell-free system. The assay conditions closely mimic cellular environments. Dose responses were measured using an assay to detect the formation of nicotinamide mono-nucleotide. All experiments were performed in the 384-well format. Generally, 0.5 μL of DMSO containing varying concentrations of the test compound was mixed with 10 μL of the enzyme reagent solution. Enzyme reactions were initiated with the addition of 10 μL of a solution containing the substrates. The final assay conditions were as follows: 6 nM human NAMPT, 2.5 mM ATP, […] in 50 mM HEPES, pH 7.2, 1 mM DTT, 1 mM CHAPS 50 mM NaCl, 100 mM MgCl2. Following an incubation of 60 min at ambient temperature, 10 μL of 20% acetophenone in DMSO was added, followed by 10 μL of 2 M KOH and 40 μL of formic acid. The plates were read for fluorescence (Excitation/Emission=355 nm/460 nm) using an EnVision plate reader after 40 mins of incubation at ambient temperature. The potency measurements for compounds, are quantified and represented as AC1.4 (the concentration of compounds that generates 40% higher activity over basal) and EC50 (concentration of the compound that gives half-maximal activation).

Sequence of human NAMPT (P43490 whole entry): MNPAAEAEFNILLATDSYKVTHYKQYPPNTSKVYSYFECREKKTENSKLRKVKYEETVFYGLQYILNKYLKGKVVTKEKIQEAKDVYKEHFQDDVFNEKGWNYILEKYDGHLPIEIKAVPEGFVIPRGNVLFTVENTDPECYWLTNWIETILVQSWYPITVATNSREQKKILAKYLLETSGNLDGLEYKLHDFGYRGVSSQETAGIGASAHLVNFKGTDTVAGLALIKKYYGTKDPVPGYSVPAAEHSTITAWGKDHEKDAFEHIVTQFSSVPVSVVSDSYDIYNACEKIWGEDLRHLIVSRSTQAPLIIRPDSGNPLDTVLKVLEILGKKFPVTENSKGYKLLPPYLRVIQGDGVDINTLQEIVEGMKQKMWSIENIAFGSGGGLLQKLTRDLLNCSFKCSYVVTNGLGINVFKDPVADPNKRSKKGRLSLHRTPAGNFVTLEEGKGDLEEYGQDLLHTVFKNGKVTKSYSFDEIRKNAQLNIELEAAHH

In the case of `Cc1nc(C(=O)NC(c2ccccc2)c2nccn2C)nc(NCCc2cn[nH]c2)c1C` (stereo not shown) [Compound 40, 4-((2-(1H-pyrazol-4-yl)ethyl)amino)-5,6-dimethyl-N-((1-methyl-1H-imidazol-2-yl)(phenyl)methyl)pyrimidine-2-carboxamide], the “AC1.4 Human” value was 0.214 µM and the pEC50 was 5.90.
In the case of `Cc1nc(C(=O)NCCS(=O)(=O)Cc2ccccc2)nc(NCCc2cn[nH]c2)c1C` [Compound 141, 4-((2-(1H-pyrazol-4-yl)ethyl)amino)-N-(2-(benzylsulfonyl)ethyl)-5,6-dimethylpyrimidine-2-carboxamide], the “AC1.4 Human” value was 3.8305 µM and the pEC50 was 4.69.
In the case of `Cc1nc(C(=O)NC(C)(C)c2cccc(F)c2)nc(NCCc2cn[nH]c2)c1C` [Compound 11, 4-((2-(1H-pyrazol-4-yl)ethyl)amino)-N-(2-(3-fluorophenyl)propan-2-yl)-5,6-dimethylpyrimidine-2-carboxamide], the “AC1.4 Human” value was 0.0465 µM and the pEC50 was 6.55.
`Cc1nc(C(=O)N2CCOCC2c2ccc(F)cc2)nc(NCCc2cn[nH]c2)c1C` (stereo not shown) [Compound 67, (4-((2-(1H-pyrazol-4-yl)ethyl)amino)-5,6-dimethylpyrimidin-2-yl)(3-(4-fluorophenyl)morpholino)methanone] was tested, and the “AC1.4 Human” value was 0.505 µM and the pEC50 was 5.41.
For `Cc1nc(C(=O)N[C@@H](C)c2ccccc2Cl)nc(NCCc2cn[nH]c2)c1C` [Compound 99, (S)-4-((2-(1H-pyrazol-4-yl)ethyl)amino)-N-(1-(2-chlorophenyl)ethyl)-5,6-dimethylpyrimidine-2-carboxamide], the “AC1.4 Human” value was 1.5915 µM and the pEC50 was 4.70.
For `Cc1cccnc1[C@@H](C)NC(=O)c1nc(C)c(C)c(NCCc2cn[nH]c2)n1` [Compound 37, (R)-4-((2-(1H-pyrazol-4-yl)ethyl)amino)-5,6-dimethyl-N-(1-(3-methylpyridin-2-yl)ethyl)pyrimidine-2-carboxamide], the “AC1.4 Human” value was 0.2055 µM and the pEC50 was 5.92.
For `Cc1nc(C(=O)NCCC(C)(C)C(F)(F)F)nc(NCCc2cn[nH]c2)c1C` [Compound 143, 4-((2-(1H-pyrazol-4-yl)ethyl)amino)-5,6-dimethyl-N-(4,4,4-trifluoro-3,3-dimethylbutyl)pyrimidine-2-carboxamide], the “AC1.4 Human” value was 4.433 µM and the pEC50 was 4.34.
`Cc1nc(C(=O)N(C)[C@H](C)c2ccccc2Cl)nc(NCCc2cn[nH]c2)c1C` [Compound 53, (R)-4-((2-(1H-pyrazol-4-yl)ethyl)amino)-N-(1-(2-chlorophenyl)ethyl)-N,5,6-trimethylpyrimidine-2-carboxamide] was tested, and the “AC1.4 Human” value was 0.3335 µM and the pEC50 was 5.58.
In the case of `Cc1nc(C(=O)NC(C)c2cccc(Cl)n2)nc(NCCc2cn[nH]c2)c1C` (stereo not shown) [Compound 36, 4-((2-(1H-pyrazol-4-yl)ethyl)amino)-N-(1-(6-chloropyridin-2-yl)ethyl)-5,6-dimethylpyrimidine-2-carboxamide], the “AC1.4 Human” value was 0.2015 µM and the pEC50 was 6.05.
With `Cc1nc(C(=O)N[C@@H](C)c2ccccn2)nc(NCCc2cn[nH]c2)c1C` [Compound 137, (S)-4-((2-(1H-pyrazol-4-yl)ethyl)amino)-5,6-dimethyl-N-(1-(pyridin-2-yl)ethyl)pyrimidine-2-carboxamide] the “AC1.4 Human” value was 3.794 µM and the pEC50 was 4.46.
With `Cc1nc(C(=O)N2CC(O)(C(F)(F)F)C2)nc(NCCc2cn[nH]c2)c1C` [Compound 48, (4-((2-(1H-pyrazol-4-yl)ethyl)amino)-5,6-dimethylpyrimidin-2-yl)(3-hydroxy-3-(trifluoromethyl)azetidin-1-yl)methanone] the “AC1.4 Human” value was 0.2925 µM and the pEC50 was 5.17.
For `Cc1nc(C(=O)NCc2ccncc2)nc(NCCc2cn[nH]c2)c1C` [Compound 133, 4-((2-(1H-pyrazol-4-yl)ethyl)amino)-5,6-dimethyl-N-(pyridin-4-ylmethyl)pyrimidine-2-carboxamide], the “AC1.4 Human” value was 3.5315 µM and the pEC50 was 4.54.
With `C[C@@H](NC(=O)c1nc2c(c(NCCc3cn[nH]c3)n1)CCC2)c1cccc(F)n1` [Compound 146, (R)-4-((2-(1H-pyrazol-4-yl)ethyl)amino)-N-(1-(6-fluoropyridin-2-yl)ethyl)-6,7-dihydro-5H-cyclopenta[d] pyrimidine-2-carboxamide] the “AC1.4 Human” value was 2.7 µM.
`Cc1nc(C(=O)N2CCC(F)(F)CC2c2ccccc2)nc(NCCc2cn[nH]c2)c1C` (stereo not shown) [Compound 28, (4-((2-(1H-pyrazol-4-yl)ethyl)amino)-5,6-dimethylpyrimidin-2-yl)(4,4-difluoro-2-phenylpiperidin-1-yl)methanone] was tested, and the “AC1.4 Human” value was 0.144 µM and the pEC50 was 5.87.
`Cc1nc(C(=O)NCC2CN(C(=O)c3ccccc3)C2)nc(NCCc2cn[nH]c2)c1C` [Compound 57, 4-((2-(1H-pyrazol-4-yl)ethyl)amino)-N-((1-benzoylazetidin-3-yl)methyl)-5,6-dimethylpyrimidine-2-carboxamide] was tested, and the “AC1.4 Human” value was 0.396 µM and the pEC50 was 5.54.
With `Cc1nc(C(=O)NC(C)(C)Cc2cccc(F)c2)nc(NCCc2cn[nH]c2)c1C` [Compound 41, 4-((2-(1H-pyrazol-4-yl)ethyl)amino)-N-(1-(3-fluorophenyl)-2-methylpropan-2-yl)-5,6-dimethylpyrimidine-2-carboxamide] the “AC1.4 Human” value was 0.2615 µM and the pEC50 was 5.54.
For `Cc1nc(C(=O)N2CCOC[C@@H]2c2ccccc2)nc(NCCc2cn[nH]c2)c1C` [Compound 63, (S)-(4-((2-(1H-pyrazol-4-yl)ethyl)amino)-5,6-dimethylpyrimidin-2-yl)(3-phenylmorpholino)methanone], the “AC1.4 Human” value was 0.4315 µM and the pEC50 was 5.64.
In the case of `COCC(c1ccc(F)cc1)N(C)C(=O)c1nc(C)c(C)c(NCCc2cn[nH]c2)n1` (stereo not shown) [Compound 92, 4-((2-(1H-pyrazol-4-yl)ethyl)amino)-N-(1-(4-fluorophenyl)-2-methoxyethyl)-N,5,6-trimethylpyrimidine-2-carboxamide], the “AC1.4 Human” value was 1.1995 µM and the pEC50 was 5.25.
With `Cc1nc(C(=O)N2CC[C@H](c3ccccc3)C2)nc(NCCc2cn[nH]c2)c1C` [Compound 52, (R)-(4-((2-(1H-pyrazol-4-yl)ethyl)amino)-5,6-dimethylpyrimidin-2-yl)(3-phenylpyrrolidin-1-yl)methanone] the “AC1.4 Human” value was 0.3305 µM and the pEC50 was 5.75.
With `Cc1cccc(F)c1NC(=O)c1nc(C)c(C)c(NCCc2cn[nH]c2)n1` [Compound 139, 4-((2-(1H-pyrazol-4-yl)ethyl)amino)-N-(2-fluoro-6-methylphenyl)-5,6-dimethylpyrimidine-2-carboxamide] the “AC1.4 Human” value was 3.809 µM and the pEC50 was 4.54.
With `Cc1nc(C(=O)NC(C)c2cncs2)nc(NCCc2cn[nH]c2)c1C` (stereo not shown) [Compound 103, 4-((2-(1H-pyrazol-4-yl)ethyl)amino)-5,6-dimethyl-N-(1-(thiazol-5-yl)ethyl)pyrimidine-2-carboxamide] the “AC1.4 Human” value was 1.6375 µM and the pEC50 was 4.67.
For `Cc1nc(C(=O)N2CCC[C@@H]2c2ccc(F)cc2)nc(NCCc2cn[nH]c2)c1C` [Compound 86, (R)-(4-((2-(1H-pyrazol-4-yl)ethyl)amino)-5,6-dimethylpyrimidin-2-yl)(2-(4-flurophenyl)pyrrolidin-1-yl)methanone], the “AC1.4 Human” value was 1.1115 µM and the pEC50 was 5.09.
With `COc1cccc([C@@H](C)NC(=O)c2nc(C)c(C)c(NCCc3cn[nH]c3)n2)n1` [Compound 43, (R)-4-((2-(1H-pyrazol-4-yl)ethyl)amino)-N-(1-(6-methoxypyridin-2-yl)ethyl)-5,6-dimethylpyrimidine-2-carboxamide] the “AC1.4 Human” value was 0.273 µM and the pEC50 was 6.08.
In the case of `Cc1nc(C(=O)N2CCOC[C@@H]2Cc2ccccc2)nc(NCCc2cn[nH]c2)c1C` [Compound 72, (S)-(4-((2-(1H-pyrazol-4-yl)ethyl)amino)-5,6-dimethylpyrimidin-2-yl)(3-benzylmorpholino)methanone], the “AC1.4 Human” value was 0.625 µM and the pEC50 was 5.45.
In the case of `Cc1nc(C(=O)NCCc2ccccc2)nc(NCCc2cn[nH]c2)c1C` [Compound 50, 4-((2-(1H-pyrazol-4-yl)ethyl)amino)-5,6-dimethyl-N-phenethylpyrimidine-2-carboxamide], the “AC1.4 Human” value was 0.311 µM and the pEC50 was 5.68.
With `Cc1nc(C(=O)NC(c2cccnc2)C(F)(F)F)nc(NCCc2cn[nH]c2)c1C` (stereo not shown) [Compound 136, 4-((2-(1H-pyrazol-4-yl)ethyl)amino)-5,6-dimethyl-N-(2,2,2-trifluoro-1-(pyridin-3-yl)ethyl)pyrimidine-2-carboxamide] the “AC1.4 Human” value was 3.778 µM and the pEC50 was 4.30.
For `COC1(c2ccccc2)CN(C(=O)c2nc(C)c(C)c(NCCc3cn[nH]c3)n2)C1` [Compound 102, (4-((2-(1H-pyrazol-4-yl)ethyl)amino)-5,6-dimethylpyrimidin-2-yl)(3-methoxy-3-phenylazetidin-1-yl)methanone], the “AC1.4 Human” value was 2.0105 µM and the pEC50 was 4.89.
For `CCC1(O)CN(C(=O)c2nc(C)c(C)c(NCCc3cn[nH]c3)n2)C1` [Compound 107, (4-((2-(1H-pyrazol-4-yl)ethyl)amino)-5,6-dimethylpyrimidin-2-yl)(3-ethyl-3-hydroxyazetidin-1-yl)methanone], the “AC1.4 Human” value was 2.339 µM and the pEC50 was 4.85.

From patent publication US20240067631A1, “PYRAZOLE DERIVATIVES USEFUL AS NAMPT MODULATORS” (Cytokinetics, Inc., priority 2020, published 2024)
